Results as given in PMC3408453, “A Foldamer-Dendrimer Conjugate Neutralizes Synaptotoxic β-Amyloid Oligomers” (PLoS ONE, 2012).
“Also recorded” adds a separate entry of the source. Read-outs that look alike come from different tables or passages of the source. Ends that are not written are not given here.

How the values were obtained:
[1] = target: T1, Aβ oligomers (Homo sapiens, UniProt P05067); test: Isothermal titration calorimetry (ITC) with Aβ oligomers; format: binding
T1 construct: a depsipeptide derivative of Aβ(1–42) was utilized; made in house; host or cells: chemical peptide synthesis (no expression host)
Description: (§1) Binding of 7 to the Aβ oligomers was monitored by means of isothermal titration calorimetry (ITC). […] The titrations were run at 288 K in order to improve the signal to noise ratio, and just above the precipitation limit as the ITC method is sensitive to the thermal noise caused by the stirring of large particles. […] These values strongly supported tight binding between the Aβ oligomer species and 7.
Isothermal titrations were performed with a Microcal VP-ITC microcalorimeter. The binding experiments were performed in PBS pH 7.4. The buffer solution was degassed. The concentrations of the ligands and Aβ were corrected for the material content. In individual titrations, 10 μL of ligand was injected from the computer-controlled 300-μL microsyringe at intervals of 300 s into the Aβ oligomer solution dissolved in the same buffer as the ligand. The microsyringe stirring was set to 295 rpm. All measurements were made at 288 K. The Aβ concentrations in the cell were either 72 μM or 36 μM, and the concentrations of 7 were 175 μM and 222 μM respectively. The total ligand concentration was set in the syringe so that the titration stopped when the precipitation became excessive. Control experiments were performed by injecting the ligand into a cell containing buffer with no target, and the heats of dilution were subtracted from those measured in the presence of Aβ. Titrations were also performed with buffer in the syringe and Aβ oligomer sample in the cell to check for the heat response of Aβ dilution itself. The dilution heat of the Aβ oligomer samples was constant and negligible. Since the target is inherently inhomogeneous, and an a priori model of the binding events is not available,. the experimental data were fitted to the two independent site binding model by using a nonlinear least-squares procedure, with ΔHb, ΔHb', Ka, Ka' (association constants), N and N' (number of binding sites for monomer), as adjustable parameters. The exothermic peaks appearing after the fully precipitated phase was reached, were omitted from the regression.

[2] = test system: LTP in mouse hippocampal slices impaired by Aβ(1–42) oligomers; test: Ex vivo hippocampal slice LTP electrophysiology; format: cell-based
Description: We investigated whether 7 could protect against the synaptic plasticity damage caused by Aβ(1–42) oligomers by using a hippocampus slice LTP model. LTP, a correlate of learning and memory has been repeatedly shown to be impaired by Aβ(1–42) oligomers. As negative control, substance 11 was applied. The experimenters were blind to the compounds tested.
These observations indicate the significant protective effect of 7 (Figure 12D). To test the effects of valency, LTP experiments were repeated with 8 under the same conditions.
Via standard procedures, 350-µm-thick transverse hippocampal slices were prepared from the brain of 7-months-old mice (CD1, Animal Breeding Facility, University of Szeged) with a McIlwain tissue chopper (Campden Instruments, Loughborough, UK). Slices were incubated in standard artificial cerebrospinal fluid (ACSF) at ambient temperature for 60 min, during constant gassing with 95% O2–5% CO2. The ACSF contained (mM): NaCl, 130; KCl, 3.5; CaCl2, 2; MgCl2, 2; NaH2PO4, 0.96; NaHCO3, 24; and D-glucose, 10 (pH 7.4). Individual slices were transferred to a 3D-MEA chip with 60 tip-shaped and 60-μm-high electrodes spaced at 100 μm (Ayanda Biosystems, S.A., Lausanne, Switzerland). The slice was continuously perfused with oxygenated ACSF (1.5 ml min^−1 at 34 °C) containing 720 nM Aβ(1–42) oligomers and/or 950 nM ligand throughout the recording session. Data were recorded with a standard, commercially available MEA setup (Multi Channel Systems MCS GmbH, Reutlingen, Germany). The Schaffer-collateral was stimulated by injecting a biphasic current waveform (−100/+100 μs) through one selected electrode at 0.033 Hz. Care was taken to choose the stimulating electrode in the same region from one slice to the other. The peak-to-peak amplitudes of fEPSPs at the stratum pyramidale and stratum radiatum of CA1 were analyzed. After a 30-min incubation period, the threshold and the maximum of stimulation intensity for evoke responses was determined. To evoke responses, 30% of the maximal stimulation intensity was used. LTP was induced by applying a theta-burst stimulation (TBS) pattern at the maximal stimulation intensity. The TBS comprised four trains administered at 20-s intervals with 10 bursts given at 5 Hz per train and 4 pulses at 100 Hz per burst. Statistical analysis was carried out by using two-tailed Student's t-test. For representative raw data see Figure S12.

[3] = target: T1, Aβ oligomers; test: Ligand-induced precipitation during ITC titration, followed by DLS; conditions: 72 μM Aβ oligomer
Description: as §1
For DLS measurements, 500 µL Aβ(1–42) solution (c = 72 µM) was prepared in PBS, and placed in a low–volume sizing cell. Size distribution was measured at 25°C on a Malvern Zetasizer Nano ZS Instrument (Malvern Instruments Ltd. Worcestershire, UK) equipped with a He-Ne laser (633 nm) by means of Non-Invasive Back Scatter (NIBS®) technology, which involves detection of the scattered light at an angle of 173°. A titration routine was formulated consisting of 12 independent measurements with a 2-min delay after each. The calculated amount of 7 solution was added to the Aβ after every second measurement. During the titration, the molar quantity of 7 varied between 0–35 µM. For a single measurement, the correlation function and distribution of the apparent hydrodynamic diameter (dh) over the scattered intensity of the particles were determined on the basis of 14 scans. […]

[4] = 72 μM Aβ oligomer in cell, 288 K, PBS pH 7.4, read-out: KD (ITC; first binding step for 7, single stage for the others)
[5] = read-out: KD (ITC), given as bound, 72 μM Aβ oligomer, 288 K
[6] = read-out: KD (ITC; first binding step for 7, single stage for the others), 72 μM Aβ oligomer in cell, 288 K, PBS pH 7.4

## N=C(N)NCCC[C@@H](CC(=O)N[C@H]1CCCC[C@@H]1C(=O)N[C@H]1CCCC[C@@H]1C(=O)N[C@@H](CC(=O)O)CC(=O)N[C@H]1CCCC[C@@H]1C(N)=O)NC(=O)[C@H]1CCCC[C@@H]1N [Compound 1]
[1]; [4]
  Kd: 2380 ± 214 nM
[1]; 72 μM Aβ oligomer, 288 K, read-out: KD (ITC), given as bound
  Kd: > 2000 nM

## NC(=O)[C@H](CSC1CC(=O)N(CCC(=O)NCCNC(=O)CCN(CCC(=O)NCCNC(=O)CCN2C(=O)CC(SC[C@H](NC(=O)CNC(=O)CNC(=O)[C@H]3CCCC[C@@H]3NC(=O)C[C@H](CO)NC(=O)[C@H]3CCCC[C@@H]3NC(=O)[C@H]3CCCC[C@@H]3NC(=O)C[C@H](CO)NC(=O)[C@H]3CCCC[C@@H]3N)C(N)=O)C2=O)CCN(CCC(=O)NCCNC(=O)CCN2C(=O)CC(SC[C@H](NC(=O)CNC(=O)CNC(=O)[C@H]3CCCC[C@@H]3NC(=O)C[C@H](CO)NC(=O)[C@H]3CCCC[C@@H]3NC(=O)[C@H]3CCCC[C@@H]3NC(=O)C[C@H](CO)NC(=O)[C@H]3CCCC[C@@H]3N)C(N)=O)C2=O)CCC(=O)NCCNC(=O)CCN2C(=O)CC(SC[C@H](NC(=O)CNC(=O)CNC(=O)[C@H]3CCCC[C@@H]3NC(=O)C[C@H](CO)NC(=O)[C@H]3CCCC[C@@H]3NC(=O)[C@H]3CCCC[C@@H]3NC(=O)C[C@H](CO)NC(=O)[C@H]3CCCC[C@@H]3N)C(N)=O)C2=O)C1=O)NC(=O)CNC(=O)CNC(=O)[C@H]1CCCC[C@@H]1NC(=O)C[C@H](CO)NC(=O)[C@H]1CCCC[C@@H]1NC(=O)[C@H]1CCCC[C@@H]1NC(=O)C[C@H](CO)NC(=O)[C@H]1CCCC[C@@H]1N (stereo partly drawn) [Compound 9]
[1]; 72 μM Aβ oligomer
  Tight binding to the Aβ oligomer species in ITC (in words): did not reveal any tight binding
[1]; 72 μM Aβ oligomer, 288 K
  N (ITC stoichiometry, number of binding sites for monomer; first or single stage): 0.03
[1]; [5]
  Kd: > 2000 nM
[1]; [6]
  Kd: 2240 ± 198 nM

## 11: 6 coupled to the G0-PAMAM template; negative control with Gly7 tentacles (GGGGGGGC-NH2; not fully specified (residue 8); also: coupled to tetravalent G0-PAMAM template) [Compound 11]
[2]; 720 nM Aβ(1–42) oligomers + 950 nM ligand, 180 min after LTP induction, mean ±SEM
  LTP (potentiation) with Aβ(1–42) oligomers and ligand together: 130±3%
[2]; 950 nM ligand, no Aβ oligomers, mean ±SEM
  LTP (potentiation) with ligand alone: 200±14%
[1]; 72 μM Aβ oligomer
  Tight binding to the Aβ oligomer species in ITC (in words): the curve fitting did not converge; also recorded: did not reveal any tight binding

## N=C(N)NCCC[C@@H](CC(=O)N[C@H]1CCCC[C@@H]1C(=O)N[C@@H](CC(=O)O)CC(=O)N[C@H]1CCCC[C@@H]1C(=O)N[C@H]1CCCC[C@@H]1C(=O)NCC(=O)NCC(=O)N[C@@H](CSC1CC(=O)N(CCC(=O)NCCNC(=O)CCN(CCC(=O)NCCNC(=O)CCN2C(=O)CC(SC[C@H](NC(=O)CNC(=O)CNC(=O)[C@H]3CCCC[C@@H]3NC(=O)[C@H]3CCCC[C@@H]3NC(=O)C[C@H](CC(=O)O)NC(=O)[C@H]3CCCC[C@@H]3NC(=O)C[C@H](CCCNC(=N)N)NC(=O)[C@H]3CCCC[C@@H]3N)C(N)=O)C2=O)CCN(CCC(=O)NCCNC(=O)CCN2C(=O)CC(SC[C@H](NC(=O)CNC(=O)CNC(=O)[C@H]3CCCC[C@@H]3NC(=O)[C@H]3CCCC[C@@H]3NC(=O)C[C@H](CC(=O)O)NC(=O)[C@H]3CCCC[C@@H]3NC(=O)C[C@H](CCCNC(=N)N)NC(=O)[C@H]3CCCC[C@@H]3N)C(N)=O)C2=O)CCC(=O)NCCNC(=O)CCN2C(=O)CC(SC[C@H](NC(=O)CNC(=O)CNC(=O)[C@H]3CCCC[C@@H]3NC(=O)[C@H]3CCCC[C@@H]3NC(=O)C[C@H](CC(=O)O)NC(=O)[C@H]3CCCC[C@@H]3NC(=O)C[C@H](CCCNC(=N)N)NC(=O)[C@H]3CCCC[C@@H]3N)C(N)=O)C2=O)C1=O)C(N)=O)NC(=O)[C@H]1CCCC[C@@H]1N (stereo partly drawn) [Compound 10]
[1]; 72 μM Aβ oligomer
  Tight binding to the Aβ oligomer species in ITC (in words): did not reveal any tight binding
[1]; 72 μM Aβ oligomer, 288 K
  N (ITC stoichiometry, number of binding sites for monomer; first or single stage): 0.10
[1]; [5]
  Kd: > 2000 nM
[1]; [6]
  Kd: 2750 ± 301 nM

## N=C(N)NCCC[C@@H](CC(=O)N[C@H]1CCCC[C@@H]1C(=O)N[C@H]1CCCC[C@@H]1C(=O)N[C@@H](CC(=O)O)CC(=O)N[C@H]1CCCC[C@@H]1C(=O)NCC(=O)NCC(=O)N[C@@H](CSC1CC(=O)N(CCCCN2C(=O)CC(SC[C@H](NC(=O)CNC(=O)CNC(=O)[C@H]3CCCC[C@@H]3NC(=O)C[C@H](CC(=O)O)NC(=O)[C@H]3CCCC[C@@H]3NC(=O)[C@H]3CCCC[C@@H]3NC(=O)C[C@H](CCCNC(=N)N)NC(=O)[C@H]3CCCC[C@@H]3N)C(N)=O)C2=O)C1=O)C(N)=O)NC(=O)[C@H]1CCCC[C@@H]1N (stereo partly drawn) [Compound 8]
[2]; 720 nM Aβ(1–42) oligomers + 950 nM ligand
  Rescue of LTP from toxic Aβ oligomers (in words): No rescue from the toxic Aβ oligomers was observed
[1]; [4]
  Kd: 721 ± 120 nM
[1]; 72 μM Aβ oligomer, 288 K
  ΔHb (ITC; first binding step for 7, single stage for 8): 1.1 ± 0.12 kcal/mol
[3]
  Concentration-dependent precipitation of Aβ oligomers during titration (ITC/DLS): Neither 8 nor 1 led to concentration-dependent precipitation

## Aβ(1–42) oligomer: synaptotoxic Aβ(1–42) oligomers prepared from Ser26 depsipeptide iso-Aβ(1–42) at pH 7.4 [reference compound]
[2]; 720 nM Aβ(1–42) oligomer, untreated slices 175±5%
  LTP (potentiation) with Aβ(1–42) oligomer alone: 128±5%
